Activity calls are given as the source filed them.
Key:
[1] = molecular target: T1, Kappa-type opioid receptor (Homo sapiens, UniProt P41145); assay: KOR agonist analogs, arrestin-GFP redistribution, SAR follow-up, imaging, image-based, set 3 (AID 488833); assay type: functional
Mu-type opioid receptor = Mu-type opioid receptor (Homo sapiens, UniProt P35372); assay: SAR Analysis of Agonists of the MOR Receptor using an Image-Based Assay - Set 3. [Related pubchem assays (depositor defined):AID1777, AID1785, AID1786, AID1966, AID2133, AID2136, AID2284, AID2285, AID2352]; assay type: functional
[2] = molecular target: Delta-type opioid receptor (Homo sapiens, UniProt P41143); assay: SAR Analysis of Agonists of the DOR Receptor using an Image-Based Assay - Set 3. [Related pubchem assays (depositor defined):AID1777, AID1786]; assay type: functional
[3] = molecular target: T1, Kappa-type opioid receptor; assay: SAR analysis of small molecule agonists of the kappa opioid receptor via a luminescent beta-arrestin assay - Set 3. [Related pubchem assays (depositor defined):AID1777, AID1785, AID1786, AID1966, AID2133, AID2136, AID2284, AID2500]; assay type: functional
[4] = mammalian cell cytotoxicity, dose response, cytotoxicity control, plate reader, cherry-pick samples (AID 504397); assay type: functional, cell-based
Nonstructural protein 1 = Nonstructural protein 1 (Influenza A virus, UniProt Q194T2); assay type: functional, Influenza A virus (A/California/07/2009(H1N1))
Ion channel NompC = Ion channel NompC (Danio rerio, UniProt Q7T1G6); assay: Dose response cell-based high-throughput screening assay for agonists of the transient receptor potential channel N1 (TRPN1). [Related pubchem assays (depositor defined):AID1424, AID1448]; assay type: functional
Mucolipin-3 = Mucolipin-3 (Homo sapiens, UniProt Q8TDD5); assay: Fluorescence counterscreen assay for […] agonists: dose response cell-based high-throughput screening assay to identify agonists of the transient receptor potential channel ML3 (TRPML3). [Related pubchem assays: 1424, 1448 ]; assay type: functional
Bcl-2-related protein A1 = molecular target: T2, Bcl-2-related protein A1 (Mus musculus, UniProt Q07440); assay type: functional;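 further: confirmatory dose–response counterscreen on Bfl-1, used to check hits from a UBC13 polyubiquitin inhibitor campaign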
T2 sequence (Q07440 whole entry): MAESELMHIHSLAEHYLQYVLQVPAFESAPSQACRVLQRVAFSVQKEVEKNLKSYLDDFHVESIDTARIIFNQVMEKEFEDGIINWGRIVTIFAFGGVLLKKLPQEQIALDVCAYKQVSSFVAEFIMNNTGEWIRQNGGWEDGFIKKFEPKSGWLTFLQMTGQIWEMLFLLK

[5] = molecular target: T3, Ubiquitin-conjugating enzyme E2 N (Homo sapiens, UniProt P61088); assay type: functional
T3 sequence (P61088 whole entry): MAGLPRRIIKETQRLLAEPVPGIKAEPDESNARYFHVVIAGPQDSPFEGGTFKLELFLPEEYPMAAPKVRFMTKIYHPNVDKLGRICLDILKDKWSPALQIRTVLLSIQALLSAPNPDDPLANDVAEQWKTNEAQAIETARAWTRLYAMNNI

[6] = molecular target: T3, Ubiquitin-conjugating enzyme E2 N; assay type: functional; remark: listed apart in the source
Cannabinoid receptor 2 [7] = molecular target: T4, Cannabinoid receptor 2 (Homo sapiens, UniProt P34972); assay: SAR analysis of antagonists of the Cannabinoid Receptor 2 using an Image-Based Assay - Set 3. [Related pubchem assays (depositor defined):AID2013, AID2026]; assay type: functional
Cannabinoid receptor 2 [8] = molecular target: T4, Cannabinoid receptor 2; assay: SAR analysis of agonists of the Cannabinoid Receptor 2 using an Image-Based Assay - Set 3. [Related pubchem assays (depositor defined):AID2013, AID2026]; assay type: functional
Cannabinoid receptor 1 [9] = molecular target: T5, Cannabinoid receptor 1 (Homo sapiens, UniProt P21554); assay: SAR analysis of agonists of the Cannabinoid Receptor 1 using an Image-Based Assay - Set 4. [Related pubchem assays (depositor defined):AID2013, AID2026]; assay type: functional
Cannabinoid receptor 1 [10] = molecular target: T5, Cannabinoid receptor 1; assay: SAR analysis of antagonists of the Cannabinoid Receptor 1 using an Image-Based Assay - Set 4. [Related pubchem assays (depositor defined):AID2013, AID2026]; assay type: functional
[11] = molecular target: G-protein coupled receptor 55 (Homo sapiens, UniProt Q9Y2T6); assay: SAR Analysis of Selective Antagonists of GPR55 using an Image-Based Assay - Set 4. [Related pubchem assays (depositor defined):AID2013, AID2026]; assay type: functional;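 further: antagonism of response to 5 µM lysophosphatidylinositol agonist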
[12] = molecular target: T6, G-protein coupled receptor 35 (Homo sapiens, UniProt Q9HC97); assay: SAR analysis of Agonists of the GPR35 Receptor using an Image-Based Assay - Set 4. [Related pubchem assays (depositor defined):AID2013, AID2026]; assay type: functional
[13] = molecular target: T6, G-protein coupled receptor 35; assay: SAR analysis of Antagonists of the GPR35 Receptor using an Image-Based Assay - Set 6. [Related pubchem assays (depositor defined):AID2013, AID2026]; assay type: functional
[14] = Luminescent dose response cell-based high throughput screening assay for inhibitors of the Janus kinase 2 mutant JAK2V617F. [Related pubchem assays: 1446 (Primary screen.), 1521 (Confirmation assay.), 1486 (Counter screen.)]; assay type: functional
[15] = Intein inhibitors as potential Tuberculosis drugs, a cytotoxicity screen. [Related pubchem assays (depositor defined):AID2221, AID2223, AID434968, AID435010, AID449749, AID449750, AID489010]; assay type: functional
Protein RecA = molecular target: T7, Protein RecA (Mycobacterium tuberculosis, UniProt P9WHJ3); assay: Fluorescence Cell-Free Homogeneous Dose Retest to Identify Inhibitors of RecA-Intein Splicing Activity. [Related pubchem assays (depositor defined):AID2097, AID2223, AID489010, AID492950]; assay type: functional
T7 sequence (P9WHJ3 whole entry): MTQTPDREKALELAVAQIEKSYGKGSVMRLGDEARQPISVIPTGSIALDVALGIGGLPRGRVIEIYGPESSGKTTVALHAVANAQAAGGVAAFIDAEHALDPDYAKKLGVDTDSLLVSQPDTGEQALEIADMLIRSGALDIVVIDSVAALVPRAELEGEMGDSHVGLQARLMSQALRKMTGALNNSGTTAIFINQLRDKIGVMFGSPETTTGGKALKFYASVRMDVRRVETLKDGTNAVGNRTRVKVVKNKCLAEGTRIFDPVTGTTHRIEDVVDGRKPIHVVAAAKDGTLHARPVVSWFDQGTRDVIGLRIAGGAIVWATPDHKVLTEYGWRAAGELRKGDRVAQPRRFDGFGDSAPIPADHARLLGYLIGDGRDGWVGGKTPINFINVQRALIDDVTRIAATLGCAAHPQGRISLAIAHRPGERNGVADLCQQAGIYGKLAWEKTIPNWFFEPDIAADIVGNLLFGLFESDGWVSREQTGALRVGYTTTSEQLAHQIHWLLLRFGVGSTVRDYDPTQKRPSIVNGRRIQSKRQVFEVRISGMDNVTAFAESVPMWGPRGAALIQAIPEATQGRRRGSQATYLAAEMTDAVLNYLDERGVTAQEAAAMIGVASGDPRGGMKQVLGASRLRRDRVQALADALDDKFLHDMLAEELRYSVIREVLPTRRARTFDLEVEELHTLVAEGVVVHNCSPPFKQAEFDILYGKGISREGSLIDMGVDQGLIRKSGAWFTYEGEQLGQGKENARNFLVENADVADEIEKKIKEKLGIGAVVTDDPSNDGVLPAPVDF

[16] = molecular target: T8, Replicative DNA helicase DnaB (Mycobacterium tuberculosis, UniProt P9WMR3); assay: DnaB intein splicing inhibitors, dose response, biochemical, cell-free fluorescence (AID 449749); assay type: functional
T8 sequence (P9WMR3 whole entry): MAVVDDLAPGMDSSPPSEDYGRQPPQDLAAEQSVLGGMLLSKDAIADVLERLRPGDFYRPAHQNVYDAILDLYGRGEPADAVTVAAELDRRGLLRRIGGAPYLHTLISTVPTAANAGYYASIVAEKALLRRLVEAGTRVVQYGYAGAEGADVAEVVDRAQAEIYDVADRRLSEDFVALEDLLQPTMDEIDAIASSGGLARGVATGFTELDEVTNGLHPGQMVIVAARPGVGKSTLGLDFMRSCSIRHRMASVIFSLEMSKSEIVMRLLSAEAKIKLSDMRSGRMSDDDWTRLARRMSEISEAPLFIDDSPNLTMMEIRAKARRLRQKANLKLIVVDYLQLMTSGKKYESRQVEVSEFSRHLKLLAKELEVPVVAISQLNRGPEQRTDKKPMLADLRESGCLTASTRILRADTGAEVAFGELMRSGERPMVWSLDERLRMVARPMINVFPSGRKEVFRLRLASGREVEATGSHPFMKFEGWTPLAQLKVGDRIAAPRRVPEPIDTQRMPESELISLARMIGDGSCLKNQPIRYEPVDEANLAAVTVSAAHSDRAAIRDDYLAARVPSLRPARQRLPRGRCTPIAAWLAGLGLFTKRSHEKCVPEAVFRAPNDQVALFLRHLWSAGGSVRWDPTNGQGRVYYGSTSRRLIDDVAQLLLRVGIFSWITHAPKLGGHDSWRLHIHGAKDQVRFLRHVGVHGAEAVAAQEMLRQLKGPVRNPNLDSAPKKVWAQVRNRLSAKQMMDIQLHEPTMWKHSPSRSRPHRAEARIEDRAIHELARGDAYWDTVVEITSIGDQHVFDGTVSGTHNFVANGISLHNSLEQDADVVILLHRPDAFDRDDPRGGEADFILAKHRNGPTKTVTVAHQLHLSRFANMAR

[17] = molecular target: T9, Type-1 angiotensin II receptor (Homo sapiens, UniProt P30556); assay: AT1 receptor agonists, dose response, selectivity assay for APJ receptor agonist project, cell-based, uHTS hits (AID 488865); assay type: functional;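 further: beta-arrestin recruitment to AT1 measured by enzyme fragment complementation luminescence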
T9 sequence (P30556 whole entry): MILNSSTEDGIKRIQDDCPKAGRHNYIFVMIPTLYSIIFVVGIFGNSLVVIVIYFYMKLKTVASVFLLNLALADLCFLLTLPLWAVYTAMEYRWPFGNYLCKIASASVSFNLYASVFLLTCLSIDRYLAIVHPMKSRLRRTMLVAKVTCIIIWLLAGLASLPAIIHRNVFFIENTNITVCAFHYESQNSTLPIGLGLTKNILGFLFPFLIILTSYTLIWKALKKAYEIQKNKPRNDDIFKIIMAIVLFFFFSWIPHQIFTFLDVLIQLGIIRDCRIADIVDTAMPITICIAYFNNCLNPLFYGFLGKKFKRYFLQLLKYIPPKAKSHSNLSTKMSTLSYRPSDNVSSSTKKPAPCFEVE

[18] = Luminescence Cell-Based Dose HTS Response to Identify Inhibitors of 5'UTR Stem-Loop Driven Prion Protein mRNA Translation in H4-C Neuroglioblastoma Cells. [Related pubchem assays (depositor defined):AID1814, AID1827]; assay type: functional
[19] = Luminescence Cell-Based Dose Response HTS to Identify Activators of Luciferase Translation or Activity in H4-C Neuroglioblastoma Cells. [Related pubchem assays: 1829 (Project Summary), 1814 (Primary HTS)]; assay type: functional
[20] = Luminescence Cell-Based Dose Response HTS to Identify Inhibitors of Luciferase Translation or Activity in H4-C Neuroglioblastoma Cells. [Related pubchem assays: 1813 (Primary HTS), 1827 (Project Summary)]; assay type: functional
[21] = Luminescence Cell-Based Dose Confirmation HTS to Identify Inhibitors of 5'UTR Stem-Loop Driven Alpha-Synuclein mRNA Translation in H4 Neuroglioblastoma Cells. [Related pubchem assays: 1827 (Project Summary), 1813 (Primary HTS)]; assay type: functional
[22] = Luminescence Cell-Based Dose Response HTS to Identify Activators of 5'UTR Stem-Loop Driven Prion Protein mRNA Translation in H4-C Neuroglioblastoma Cells. [Related pubchem assays: 1829 (Project Summary), 1814 (Primary HTS)]; assay type: functional
[23] = Luminescence Cell-Based Dose Retest to Confirm Activators of 5'UTR Stem-Loop Driven Alpha-Synuclein mRNA Translation in H4 Neuroglioblastoma Cells. [Related pubchem assays (depositor defined):AID1813, AID1829]; assay type: functional
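Wherever CC50 is given: cells exposed to compound for 72 hours before luminescence readout.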

FC(F)(F)c1cc(CSc2nnc(-c3ccccn3)n2Cc2cccs2)ccc1Cl
EC50 [1]: 1.38 µM (active)
EC50 (Mu-type opioid receptor): > 32 µM (inactive)
EC50 [2]: > 32 µM (inactive)
EC50 [3]: 0.432 µM (active)

O=C(Nc1ccccc1N1CCOCC1)C1CCN(S(=O)(=O)c2ccc(F)cc2)CC1
AC50 [4]: > 350 µM (inactive)

CCN1C(=O)/C(=C/C=C2\N(CC)c3cc(S(=O)(=O)N(C)C)ccc3N2c2ccccc2)SC1=S
IC50 (Nonstructural protein 1): 55.3 µM (active)
EC50 (Ion channel NompC): 1.62 µM (active)
EC50 (Mucolipin-3): > 29.9 µM (not active)

CCOc1ccc(-c2csc(NC(=O)c3cccc(N4C(=O)CCC4=O)c3)n2)cc1
IC50 (Bcl-2-related protein A1): > 20 µM (inactive)
IC50 [5]: 15.7 µM (active)
IC50 [6]: > 20 µM (inactive)

Cc1nnc(-c2ccccc2)c2cn(-c3ccc(Cl)cc3)nc12
IC50 (Cannabinoid receptor 2 [7]): > 32 µM (inactive)
EC50 (Cannabinoid receptor 2 [8]): > 32 µM (inactive)
EC50 (Cannabinoid receptor 1 [9]): > 32 µM (inactive)
IC50 (Cannabinoid receptor 1 [10]): 3.63 µM (active)
IC50 [11]: 1.77 µM (active)
EC50 [12]: > 32 µM (inactive)
IC50 [13]: 23 µM (inactive)

Cc1ccc(C)c(Sc2ccc(NC(=O)CCl)cc2)c1
IC50 [14]: 0.743 µM (active)
CC50 [15]: 7.6 µM (active)
EC50 (Protein RecA): 0.602 µM (active)
AC50 [16]: 2.3 µM (active)

Cc1ccc(/C=N/NC(=O)CSc2nnc(-c3ccccc3)n2-c2ccc(Cl)cc2)o1
EC50 [17]: > 100 µM (inactive)

Oc1ccccc1/N=N/c1ccccc1O
EC50 [18]: 1.09 µM (active)
EC50 [19]: 0.929 µM (inconclusive)
EC50 [20]: 1.36 µM (active)
EC50 [21]: 1.7 µM (active)
EC50 [22]: 0.399 µM (inconclusive)
EC50 [23]: 1.77 µM (inconclusive)

Reference: ChEMBL document CHEMBL1201862, “PubChem BioAssay data set” (2004)
